Where a chain is given by its changes, count along the chain named. Read-outs that look alike come from different tables or passages of the source.

The values below come from PMC6514686, “Tri-Cyclic Nucleobase Analogs and Their Ribosides as Substrates of Purine-Nucleoside Phosphorylases. II Guanine and Isoguanine Derivatives” (Molecules, 2019).

Data set [1] deals with T1, E. coli PNP (Escherichia coli, UniProt P0ABP8).
T1 construct: made in house; host or cells: E. coli
Also on record: method as in PMID 29376769. As to conditions: cited from earlier work.

In data set [2] the target is T2, calf PNP (Bos taurus, UniProt P55859).
T2 construct: made in house; host or cells: E. coli
T2 sequence (P55859 1-289): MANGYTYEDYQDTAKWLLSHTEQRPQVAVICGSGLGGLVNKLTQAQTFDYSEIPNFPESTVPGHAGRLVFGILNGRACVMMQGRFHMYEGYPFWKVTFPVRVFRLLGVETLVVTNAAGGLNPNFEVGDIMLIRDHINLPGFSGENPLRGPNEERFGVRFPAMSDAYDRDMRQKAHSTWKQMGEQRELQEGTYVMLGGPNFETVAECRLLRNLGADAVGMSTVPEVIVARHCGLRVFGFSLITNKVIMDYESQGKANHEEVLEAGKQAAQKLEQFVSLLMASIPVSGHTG
The arrangement: method as in PMID 29376769. As to conditions: cited from earlier work.

Data set [3] has as its target T2, calf PNP. Description: phosphorolysis of nucleosides in phosphate buffer by calf PNP. In kind it is biochemical. Here is the method: (§1) For kinetic analyses, enzymatic ribosylation reactions were carried out in 1 mL cuvettes (pathlength 4 mm) in ~50 mM HEPES buffer, pH 7.3, using ca. 0.5 mM R1P as a ribose source. On a larger scale, reactions were run in Eppendorf tubes, volume 2–3 mL, using either R1P or 7-methylguanosine as ribose sources. Phosphorolysis reactions were run in 50 mM phosphate buffer, pH 7.0 or 6.5. Data were analyzed by standard methods (see Supplementary Materials).

Data set [4] can be described thus: ionization constants (spectrophotometric titrations).
Data set [5] addresses T1, E. coli PNP. Description: phosphorolysis of nucleosides in phosphate buffer by E. coli PNP. As to conditions: for phosphorolysis (in words): 50 mM phosphate buffer, pH 6.5. In kind it is biochemical. The method, then:
as §1

The target in data set [6] is T3, calf PNP-wt (calf spleen purine-nucleoside phosphorylase) (Bos taurus, UniProt P55859).
T3 construct: made in house; host or cells: E. coli
T3 sequence (P55859 1-289): T2 sequence (P55859 1-289)
Description: enzymatic ribosylation by α-D-ribose-1-phosphate, calf PNP wild type. The class given is biochemical. As to conditions: for Vmax (relative): relative to Vmax of guanine ribosylation under the same conditions (=100), 40 mM HEPES, pH 7, error ~10%. The method, then: as §1
(§2) Recombinant E. coli and calf spleen PNPs as well as their mutated forms were expressed in E. coli and purified according to the procedures described earlier.

Data set [7] deals with T4, E.coli PNP-wt (purine-nucleoside phosphorylase) (Escherichia coli, UniProt P0ABP8).
T4 construct: made in house; host or cells: E. coli
T4 sequence (P0ABP8 2-239 limits assumed): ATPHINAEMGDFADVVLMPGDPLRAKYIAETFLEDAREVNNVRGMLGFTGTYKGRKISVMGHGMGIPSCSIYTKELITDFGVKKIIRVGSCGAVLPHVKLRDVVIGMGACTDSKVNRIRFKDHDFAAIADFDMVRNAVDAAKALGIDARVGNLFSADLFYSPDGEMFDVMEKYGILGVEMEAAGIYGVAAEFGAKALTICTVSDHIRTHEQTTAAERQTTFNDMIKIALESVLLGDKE
Description: enzymatic ribosylation of nucleobase analogs by α-D-ribose-1-phosphate, E. coli PNP wild type. In kind it is biochemical. As to conditions: for Vmax (relative): relative to Vmax of guanine ribosylation under the same conditions (=100), 40 mM HEPES, pH 7, error ~10%. Here is the method:
(§3) […] 0.5 mM R1P as a ribose source. On a larger scale, reactions were run in Eppendorf tubes, volume 2–3 mL, using either R1P or 7-methylguanosine as ribose sources. Phosphorolysis reactions were run in 50 mM phosphate buffer, pH 7.0 or 6.5. Data were analyzed by standard methods (see Supplementary Materials).
as §2

Data set [8] deals with T1, E. coli PNP. Description: inhibition of guanine ribosylation catalyzed by E. coli PNP. The class given is biochemical. Here is the method: We conclude that inability of the enzyme to ribosylate (2) is not due to geometric hindrance, but rather should be ascribed to unfavorable energetic factors, in accordance with previous reports about the relative instability of the glycosidic bond in this compound [23].
(§4) N^2,3-etheno-O^6-methylguanine (3) effectively competes with guanine in the ribosylation process, acting as quasi inhibitor of the E. coli PNP, with estimated Kiapp value 7.5 ± 0.8 μM (competitive model; average of 3 determinations), in agreement with the Km value, estimated from kinetic data (see the previous paragraph).
as §1

Another data set deals with T5, E.coli PNP-mutantD204N (Escherichia coli, UniProt P0ABP8, D205N).
T5 construct: made in house; host or cells: E. coli
Description: enzymatic ribosylation by α-D-ribose-1-phosphate, E. coli PNP D204N mutant. In kind it is biochemical. As to conditions: for Vmax (relative): relative to Vmax of guanine ribosylation under the same conditions (=100), 40 mM HEPES, pH 7, error ~10%. Here is the method:
as §1, §2

For a further data set, the target named is T6, calf PNP-mutantN243D (Bos taurus, UniProt P55859, N243D).
T6 construct: made in house; host or cells: E. coli
T6 sequence (P55859 1-289 N243D): T2 sequence (P55859 1-289) with N243D
Description: enzymatic ribosylation by α-D-ribose-1-phosphate, calf PNP N243D mutant. The class given is biochemical. Here is the method: as §1, §2

In data set [9] the target is T2, calf PNP. Description: inhibition of guanine ribosylation catalyzed by calf PNP. In kind it is biochemical. As to conditions: similar conditions as with E. coli PNP. Here is the method: as §4, §1
Substrate in data set [10]: O=c1c2[nH]cnc2nc2[nH]ccn12
Description: enzymatic ribosylation of nucleobase analogs by α-D-ribose-1-phosphate, E. coli PNP wild type. The class given is biochemical. As to conditions: other: ribosylation, 40 mM HEPES buffer, pH 7, α-D-ribose-1-phosphate, standard errors ~15%. The method, then: as §3, §2

[11] abbreviates: aqueous, pKa ±0.1, upper (acidic) value, deprotonation to the monoanion.
Where [12] appears, read: aqueous, pKa ±0.1, lower (basic) value, protonation to the cation.
Setting [13] is: no reaction traces even with 10-fold higher enzyme concentrations.
Setting [14] is: 40 mM HEPES buffer, pH 7, α-D-ribose-1-phosphate.

T5 sequence (P0ABP8 2-239 D205N): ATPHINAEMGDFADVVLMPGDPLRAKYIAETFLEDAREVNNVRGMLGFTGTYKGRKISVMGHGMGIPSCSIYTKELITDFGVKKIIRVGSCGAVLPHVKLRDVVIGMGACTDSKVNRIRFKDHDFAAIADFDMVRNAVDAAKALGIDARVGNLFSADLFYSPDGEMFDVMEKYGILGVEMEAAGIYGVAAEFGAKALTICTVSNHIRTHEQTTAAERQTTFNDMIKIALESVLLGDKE

For the molecule `OC[C@H]1O[C@@H](n2cnc3c2ncn2ccnc32)[C@H](O)[C@@H]1O` [1,N^6-ethenoadenosine], the “phosphorolysis (in words)” value is reported as “rapidly phosphorolysed” at E. coli PNP [1] and “resistant” on calf PNP [2].
In general, pKa refers to the negative logarithm of the acid dissociation constant. A lower pKa goes with a stronger acid or weaker base. For the molecule `O=c1c2ncn([C@@H]3O[C@H](CO)[C@@H](O)[C@H]3O)c2nc2[nH]ccn12` [1,N^2-ethenoguanosine], the “phosphorolysis (in words)” value at calf PNP [3] is “no marked phosphorolysis”. In data set [4] (setting [11]), this molecule yielded a pKa of 8.8.
As to “1,N^6-etheno-N7-β-D-ribosylisoguanosine [N7-riboside (6)]”, the “phosphorolysis (in words)” value at E. coli PNP [5] was “Even more rapid”.
In the case of `O=c1[nH]c2c(ncn2[C@@H]2O[C@H](CO)[C@@H](O)[C@H]2O)c2nccn12` [N9-riboside (5), 1,N^6-etheno-N9-β-D-ribosylisoguanosine], the “phosphorolysis (in words)” value at calf PNP [3] is “not phosphorolysed”; on E. coli PNP [5], “fairly rapid”. The figures for the pKa in data set [4] (setting [12]) and in [4] (setting [11]) were 2.4 and 7.1, respectively.
As for `O=c1nc2[nH]ccn2c2nc[nH]c12` [N^2,3-ethenoguanine], the “substrate activity in ribosylation (in words)” value in data set [6] (setting [13]) and in data set [7] (setting [13]) was “not a substrate” each time. For the same molecule, the “Vmax (relative)” value in data set [6] and in [7] was <0.1 each time. Also, the results for the pKa in data set [4] (setting [12]) and in data set [4] (setting [11]) were ~2.5 and 8.8, respectively. Besides, the Ki on E. coli PNP [8] (guanine as substrate of the ribosylation reaction, possibly competitive inhibition, read-out: estimated Ki) is 38 µM.
With `Nc1nc(=O)[nH]c2c1ncn2[C@@H]1O[C@H](CO)[C@@H](O)[C@H]1O` [isoguanosine, reference compound], the “phosphorolysis (in words)” value on calf PNP [3] was “did not see any such reaction”. Moreover, the “Vmax of phosphorolysis, fold lower than that for guanosine” value at E. coli PNP [5] (data not shown) was “ca. 40 fold”.
Broadly, the Km is the concentration of substrate that gives half-maximal velocity. In the case of 1,N^6-ethenoisoguanine, the “Vmax (relative)” value at E.coli PNP-mutantD204N is on record as >5; in data set [6] it was 1.6; in data set [7], ~24; on calf PNP-mutantN243D (relative to Vmax of guanine ribosylation under the same conditions (=100), 40 mM HEPES, pH 7, error ~10%) it was ~1. Besides, the Km in data set [6] (ribosylation, 40 mM HEPES buffer, pH 7, α-D-ribose-1-phosphate, standard errors ~15%) is ~160 µM; in data set [7] (50 mM HEPS buffer, pH 7.3, R1P 0.5 mM, 25 °C (Figure S3), read-out: Km from double-reciprocal plots), 98 µM; in data set [7] (ribosylation, 40 mM HEPES buffer, pH 7, α-D-ribose-1-phosphate, standard errors ~15%, read-out: Km) it was 98 µM. In addition, in data set [4] (aqueous, protonation to the cation), the “pKa ±0.1, lower (basic) value” was 3.5. Besides, the “fitted pKa, lower (basic) value” in data set [4] (spectrophotometric titration, pH 2.9 to 5.5, ±0.2 (Figure S2)) is 3.5. For the same molecule, the “fitted pKa, upper (acidic) value” in [4] (spectrophotometric titration, pH 6.25 to 11.5, ±0.2 (Figure S2)) is given as 8.1. In [4] (spectrophotometric titrations), the “pH of probable second deprotonation” value is ~ 13. Also, the “Approximate Product Ratio: N9: N7-riboside: N^6-riboside” value at calf PNP-mutantN243D (setting [14]) is “predominantly N^6”.
As for `O=c1c2nc[nH]c2[nH]c2nccn12` [1,N^2-ethenoguanine, 5,9-dihydro-9-oximidazo{1,2-a}purine], the “Approximate Product Ratio: N9: N7-riboside: N^6-riboside” value (on E.coli PNP-mutantD204N (setting [14]); in data set [6] (setting [14]); in data set [7] (setting [14])) was “predominantly N9” each time. Besides, the entries for the “Vmax (relative)” value (on E.coli PNP-mutantD204N; in data set [6]; in [7]) were >15, <0.5 and 18, respectively. Also, the “ribosylation rate, fold slower than the ribosylation of guanine” value is recorded as “ca. 100 fold” in data set [6] (pH 7.3, HEPES buffer, 25 °C) and “ca. 100 fold” at calf PNP-mutantN243D (pH 7.3, HEPES buffer, 25 °C). In addition, the “share of the one main product in the reaction mixture (HPLC)” value in data set [7] (ribosylation, product identical to the chemically generated nucleoside) is on record as > 95%. Besides, the pKa in data set [4] (setting [12]) is ~2; in [4] (setting [11]), ~9.5.
As to `COc1nc2nccn2c2[nH]cnc12` [N^2,3-etheno-O^6-methylguanine], the “Vmax (relative)” value in [6] is on record as <0.1; in [7], ~0.3. Besides, the figures for the pKa in [4] (setting [12]) and in data set [4] (setting [11]) were ~3.5 and ~9, respectively. For the same molecule, the Ki at E. coli PNP [8] (competition with guanine in ribosylation, competitive model, average of 3 determinations, read-out: estimated Kiapp) is 7.5 ± 0.8 µM. The “inhibition of guanine ribosylation (in words)” value at calf PNP [9] is “no such inhibition is observed”.
Take “1,N^6-etheno-N^6-β-D-ribosylisoguanosine [N^6-riboside (7)]”: the results for the “phosphorolysis (in words)” value at calf PNP [3] and at E. coli PNP [5] were “only slowly deribosylated” and “much more rapidly”, respectively.

B1: E.coli PNP-wt (purine-nucleoside phosphorylase) (Escherichia coli K-12) (protein)
chain: T4 sequence (P0ABP8 2-239 limits assumed)
notes: made in house; host or cells: E. coli
Consider B1, for which the Km in data set [10] was determined as 48 µM.
